What was measured:
[1] = test system: Mus musculus; experiment: Inhibition of tetrabenazine ptosis in mice following i.p. administration.; format: functional; settings: ip
[2] = test system: Mus musculus; experiment: Antidepressant activity by tetrabenazine ptosis prevention in mice after oral administration
[3] = test system: Rattus norvegicus; experiment: Potentiation of head twitching induced by 5-HTP in pargyline-pretreated rats following i.p. administration.; format: functional; settings: ip
[4] = test system: Mus musculus; experiment: Antidepressant activity by tetrabenazine ptosis prevention in mice after intraperitoneal administration; settings: ip
[5] = test system: Mus musculus; experiment: Antidepressant activity by tetrabenazine ptosis prevention in mice after intraperitoneal administration; d = All animals died after tetrabenazine dosing; format: functional, organism-based
[6] = test system: Rattus norvegicus; experiment: Antidepressant activity measured by potentiation of head twitching induced by 5-HTP in pargyline-pretreated rats after intraperitoneal administered; format: functional; settings: ip
[7] = test system: Mus musculus; experiment: Antidepressant activity by tetrabenazine ptosis prevention in mice after peroral administration; format: functional; settings: po
[8] = test system: Mus musculus; experiment: In vivo antidepressant activity by tetrabenazine ptosis prevention in mice after intraperitoneal administration; format: functional; settings: ip
[9] = test system: Mus musculus; experiment: In vivo antidepressant activity measured by yohimbine toxicity potentiation in mouse after intraperitoneal administration; format: functional; settings: ip
[10] = test system: Mus musculus; experiment: In vivo antidepressant activity by tetrabenazine ptosis prevention in mice after oral administration; format: functional
[11] = test system: Rattus norvegicus; experiment: In vivo antidepressant activity measured by potentiation of head twitching induced by 5-HTP in pargyline-pretreated rats after intraperitoneal administration; format: functional; settings: ip
[12] = test system: Rattus norvegicus; experiment: In vivo antidepressant activity against muricide in rat after intraperitoneal administration; format: functional; settings: ip
[13] = test system: Mus musculus; experiment: Antidepressant activity by tetrabenazine ptosis prevention in mice after oral administration; format: functional
[14] = organism: Rattus norvegicus; experiment: In vitro inhibition of neuronal uptake against norepinephrine in rat whole brain; format: functional
[15] = organism: Rattus norvegicus; experiment: In vitro inhibition of neuronal uptake against serotonin in rat whole brain; format: functional
[16] = organism: Rattus norvegicus; experiment: In vitro inhibition of neuronal uptake against dopamine in rat striatum; format: functional
[17] = test system: Mus musculus; experiment: In vivo antidepressant activity by tetrabenazine ptosis prevention in mouse after intraperitoneal administration; settings: ip
[18] = test system: Mus musculus; experiment: Antidepressant activity by tetrabenazine ptosis prevention in mouse after oral administration; format: functional
[19] = test system: Monoamine oxidase (Rattus norvegicus); experiment: In vitro inhibition of MAO against mitochondrial preparation in rat whole brain

Q: Which results are given for `CNCCCN1c2ccccc2CCc2ccccc21` [DESIPRAMINE]?
A: ED50 [1]: 0.8 mg/kg; ED50 [2]: 1.6 mg/kg; ED50 [3]: > 10 mg/kg

Q: Which results are given for `Fc1ccc(N2CC3(CCNCC3)c3ccccc32)cc1.O=C(O)/C=C\C(=O)O`?
A: ED50 [1]: > 20 mg/kg; ED50 [4]: > 20 mg/kg; ED50 [3]: > 10 mg/kg

Q: Which ED50 [1] does the source give for `CN1CCC2(CC1)CN(c1ccccc1N)c1ccccc12.Cl` here?
A: 4 mg/kg

Q: What about the ED50 [3] of the same compound?
A: > 10 mg/kg

Q: For `CN1CCC2(CC1)CN(c1ccccc1C(F)(F)F)c1cc(Cl)ccc12.O=C(O)/C=C\C(=O)O`, which ED50 [1] is on record?
A: > 8 mg/kg

Q: What about the ED50 [3] of the same compound?
A: > 10 mg/kg

Q: For `Cl.O=[N+]([O-])c1ccccc1N1CC2(CCNCC2)c2ccccc21`, which ED50 [5] is on record?
A: All animals died

Q: What about the ED50 [3] of the same compound?
A: > 10 mg/kg

Q: How did the ED50 [1] turn out when `CN1CCC2(CC1)CN(c1ccc(Cl)cc1)c1ccccc12` was run?
A: > 20 mg/kg

Q: What about the ED50 [3] of the same compound?
A: > 10 mg/kg

Q: Which results are given for `Fc1ccccc1N1CC2(CCNCC2)c2ccc(Cl)cc21.O=C(O)/C=C\C(=O)O`?
A: ED50 [1]: > 8 mg/kg; ED50 [3]: > 10 mg/kg

Q: Which results are given for `Br.CN1CCC2(CC1)CN(c1ccc(F)cc1)c1ccccc12`?
A: ED50 [6]: > 10 mg/kg; ED50 [1]: > 20 mg/kg; ED50 [4]: > 20 mg/kg

Q: What does the source list for `Cl.Cl.Nc1ccccc1N1CC2(CCNCC2)c2ccc(Cl)cc21`?
A: ED50 [1]: > 20 mg/kg; ED50 [3]: > 10 mg/kg

Q: What does the source list for `CN1CCC2(CC1)CN(c1ccccc1F)c1ccccc12.O=C(O)/C=C\C(=O)O`?
A: ED50 [1]: 15.2 mg/kg; ED50 [3]: > 10 mg/kg

Q: Which results are given for `CN1CCC2(CC1)CN(c1ccccc1[N+](=O)[O-])c1ccccc12`?
A: ED50 [4]: 4 mg/kg; ED50 [3]: > 10 mg/kg; ED50 [7]: 8.4 mg/kg

Q: Which results are given for `CN1CCC2(CC1)CN(c1ccc(C(F)(F)F)cc1)c1ccccc12`?
A: ED50 [1]: > 20 mg/kg; ED50 [4]: > 20 mg/kg; ED50 [3]: 7.8 mg/kg

Q: With `c1ccc(C2OC3(CCNCC3)c3ccccc32)cc1` (configuration not stated) as the compound, how does the ED50 [1] read?
A: 0.5 mg/kg

Q: What about the ED50 [2] of the same compound?
A: 1 mg/kg

Q: And the ED50 [3]?
A: 1.9 mg/kg

Q: Which results are given for `CN1CCC2(CC1)CN(c1ccccc1Cl)c1cc(Cl)ccc12.O=C(O)/C=C\C(=O)O`?
A: ED50 [1]: 2.6 mg/kg; ED50 [3]: > 10 mg/kg

Q: What does the source list for `CN1CCC2(CC1)CN(c1ccccc1F)c1cc(Cl)ccc12.O=C(O)/C=C\C(=O)O`?
A: ED50 [1]: 11 mg/kg; ED50 [3]: > 10 mg/kg

Q: How did the ED50 [8] turn out when `CN(C)CCC=C1c2ccccc2CCc2ccccc21` [AMITRIPTYLINE] was run?
A: 1.5 mg/kg

Q: And the ED50 [9]?
A: 8 mg/kg

Q: And the ED50 [10]?
A: 1.94 mg/kg

Q: And the ED50 [11]?
A: 7.1 mg/kg

Q: And the ED50 [12]?
A: 22.6 mg/kg

Q: With `CN1CCC2(CC1)CN(c1cccc(C(F)(F)F)c1)c1ccccc12` as the compound, how does the ED50 [1] read?
A: > 20 mg/kg

Q: What about the ED50 [3] of the same compound?
A: > 10 mg/kg

Q: For `CN1CCC2(CC1)CN(c1ccccc1Cl)c1ccccc12.O=C(O)/C=C\C(=O)O`, which ED50 [13] is on record?
A: 3.2 mg/kg

Q: What about the ED50 [3] of the same compound?
A: > 10 mg/kg

Q: For `Br.CN1CCC2(CC1)CN(c1ccccn1)c1ccccc12`, which ED50 [1] is on record?
A: > 20 mg/kg

Q: What about the ED50 [3] of the same compound?
A: > 10 mg/kg

Q: For `Cl.Nc1ccccc1N1CC2(CCNCC2)c2ccccc21`, which ED50 [1] is on record?
A: > 20 mg/kg

Q: And the ED50 [3]?
A: > 10 mg/kg

Q: How did the IC50 [14] turn out when `Clc1ccccc1N1CC2(CCNCC2)c2ccccc21.O=C(O)/C=C\C(=O)O` was run?
A: 6.5 µM

Q: And the IC50 [15]?
A: 1.7 µM

Q: What about the IC50 [16] of the same compound?
A: 8 µM

Q: And the ED50 [17]?
A: 1.2 mg/kg

Q: And the ED50 [18]?
A: 0.37 mg/kg

Q: What about the IC50 [19] of the same compound?
A: 160 µM

Q: And the ED50 [9]?
A: 1.6 mg/kg

Q: What about the ED50 [11] of the same compound?
A: 4.7 mg/kg

Q: And the ED50 [12]?
A: 4.9 mg/kg

Q: What does the source list for `CN1CCC2(CC1)CN(c1ccccc1)c1ccccc12`?
A: ED50 [1]: > 20 mg/kg; ED50 [3]: > 10 mg/kg

Q: `CN1CCC2(CC1)CN(c1ccccc1N)c1cc(Cl)ccc12.Cl.Cl` was tested. Which ED50 [1] did it give?
A: > 20 mg/kg

Q: And the ED50 [3]?
A: > 10 mg/kg

Source: ChEMBL document CHEMBL1122256, “Novel tetracyclic spiropiperidines. 3. 1-arylspiro[indoline-3,4'-piperidine]s as potential antidepressants” (J Med Chem, 1983)
